The values that follow come from ChEMBL document CHEMBL4715869, “N-(Pyrimidin-2-yl)-1,2,3,4-tetrahydroisoquinolin-6-amine Derivatives as Selective Janus Kinase 2 Inhibitors for the Treatment of Myeloproliferative Neoplasms” (J Med Chem, 2020).

The target of data set [1] is T1, Signal transducer and transcription activator 6 (Mus musculus) (UniProt P52633).
T1 sequence (whole entry): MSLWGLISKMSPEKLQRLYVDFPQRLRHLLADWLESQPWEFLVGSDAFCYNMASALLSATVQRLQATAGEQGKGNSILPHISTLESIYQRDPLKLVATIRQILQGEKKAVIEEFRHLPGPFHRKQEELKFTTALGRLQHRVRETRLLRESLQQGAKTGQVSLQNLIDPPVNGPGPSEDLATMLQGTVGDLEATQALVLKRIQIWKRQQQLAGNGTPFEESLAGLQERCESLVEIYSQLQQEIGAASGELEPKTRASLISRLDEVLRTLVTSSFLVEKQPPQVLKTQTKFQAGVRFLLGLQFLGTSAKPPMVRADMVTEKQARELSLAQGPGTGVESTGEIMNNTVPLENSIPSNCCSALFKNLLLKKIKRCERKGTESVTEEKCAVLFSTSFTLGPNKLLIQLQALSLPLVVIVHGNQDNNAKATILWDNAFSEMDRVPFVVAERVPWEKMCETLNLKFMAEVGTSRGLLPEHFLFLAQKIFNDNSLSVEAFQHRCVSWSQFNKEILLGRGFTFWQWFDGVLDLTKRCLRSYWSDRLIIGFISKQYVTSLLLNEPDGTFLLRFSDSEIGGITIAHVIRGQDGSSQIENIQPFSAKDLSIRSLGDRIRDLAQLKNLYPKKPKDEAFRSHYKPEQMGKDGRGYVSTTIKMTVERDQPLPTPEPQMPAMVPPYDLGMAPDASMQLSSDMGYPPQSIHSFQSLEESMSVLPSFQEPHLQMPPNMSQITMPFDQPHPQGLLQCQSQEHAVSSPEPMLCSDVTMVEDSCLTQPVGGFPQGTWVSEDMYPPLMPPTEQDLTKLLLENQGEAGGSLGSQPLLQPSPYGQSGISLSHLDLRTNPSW
The experiment in a line: Inhibition of STAT6 phosphorylation in mouse BAF3 cells at 1000 nM after 2 hrs by Western blot analysis. Type of data set: cell-based.

Data set [2] can be described thus: Apparent clearance in Sprague-Dawley rat at 5 mg/kg, po administered via gavage measured upto 24 hrs by LC/MS/MS analysis. Type of data set: ADME, organism-based. Conditions: in vivo, read-out: CL(app) (converted).
Data set [3] is described as follows: Selectivity index, ratio of IC50 for inhibition of recombinant human JAK3 (781 to end residues) to IC50 for inhibition of recombinant human JAK2 (808 to end residues).

Activity calls are given as the source filed them. No cut-off for these calls is given here.

On to `Cc1cnc(Nc2ccc3c(c2)CCN(C(=O)/C=C/CN(C)C)C3)nc1-c1cnn(C(C)C)c1`, for which the inhibition result in data set [1] is “inactive”. In addition, in data set [2], the CL/F is 480 mL/min/kg. Moreover, the Ratio IC50 in data set [3] came out at 31.
